# ± gives the standard deviation of the averaged measurements.
# What was measured:
# U-2 OS [1] = assay: relative cell count vs DMSO (cell painting) (fraction of DMSO control); higher = more cells remaining (less cytotoxic); conditions: 24 h
# Procedure: (§1)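 Cell painting in U-2 OS cells (384-well, about 1,500 cells per well), compound exposure 24 h, usually six 2-fold concentrations from 20 to 0.625 uM (some compounds higher or lower). Relative cell count is the cell number per well relative to DMSO wells. Activity score is the Mahalanobis distance of the morphological profile from DMSO control wells. Mean of four technical replicate plates.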
# U-2 OS [2] = assay: total intracellular glutathione (GSH + GSSG) relative to DMSO (% of control); higher = more glutathione; conditions: 24 h
# Procedure: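 Total intracellular glutathione (GSH + GSSG) in U-2 OS cells by GSH/GSSG-Glo after 24 h compound treatment at 5, 10 and 20 uM (some at 40 and 80 uM), as percent of DMSO control. Five technical replicate plates, averaged.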
# U-2 OS [3] = assay: cell viability (CellTiter-Glo) relative to DMSO (% of control); higher = more viable; conditions: 24 h
# Procedure: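 Cell viability of U-2 OS cells by CellTiter-Glo after 24 h compound treatment at 5, 10 and 20 uM (some at 40 and 80 uM), measured in parallel with the glutathione assay, as percent of DMSO control. Five technical replicate plates, averaged.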
# U-2 OS [4] = assay: cell painting activity score (Mahalanobis distance from DMSO wells); higher = stronger morphological phenotype; conditions: 24 h
# Procedure: as §1
# U-2 OS [5] = assay: AUC of culture confluence over time (live-cell imaging) (AUC (confluence % x time)); higher = more confluent culture (less growth inhibition)
# Procedure: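 Live-cell Incucyte imaging of U-2 OS cells in F-12K medium. Compounds were tested mostly at 5, 10 and 20 uM, and cells were imaged every 4 h for up to 60 h. Value is the area under the curve of phase-contrast confluence over time.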
SMILES,relative cell count (U-2 OS [1]; 0.625 µM),relative cell count (U-2 OS [1]; 1.25 µM),relative cell count (U-2 OS [1]; 2.5 µM),relative cell count (U-2 OS [1]; 5 µM),relative cell count (U-2 OS [1]; 10 µM),relative cell count (U-2 OS [1]; 20 µM),total intracellular glutathione (U-2 OS [2]; 5 µM),total intracellular glutathione (U-2 OS [2]; 10 µM),total intracellular glutathione (U-2 OS [2]; 20 µM),total intracellular glutathione (U-2 OS [2]; 40 µM),total intracellular glutathione (U-2 OS [2]; 80 µM),cell viability (U-2 OS [3]; 5 µM),cell viability (U-2 OS [3]; 10 µM),cell viability (U-2 OS [3]; 20 µM),cell viability (U-2 OS [3]; 40 µM),cell viability (U-2 OS [3]; 80 µM),cell painting activity score (U-2 OS [4]; 0.625 µM),cell painting activity score (U-2 OS [4]; 1.25 µM),cell painting activity score (U-2 OS [4]; 2.5 µM),cell painting activity score (U-2 OS [4]; 5 µM),cell painting activity score (U-2 OS [4]; 10 µM),cell painting activity score (U-2 OS [4]; 20 µM),AUC of culture confluence over time (U-2 OS [5]; 5 µM),AUC of culture confluence over time (U-2 OS [5]; 10 µM),AUC of culture confluence over time (U-2 OS [5]; 20 µM),relative cell count (U-2 OS [1]; 0.019532 µM),relative cell count (U-2 OS [1]; 0.07812 µM),relative cell count (U-2 OS [1]; 0.3124 µM),AUC of culture confluence over time (U-2 OS [5]; 1.25 µM),cell painting activity score (U-2 OS [4]; 0.019532 µM),cell painting activity score (U-2 OS [4]; 0.07812 µM),cell painting activity score (U-2 OS [4]; 0.3124 µM)
CCCC[S@](=N)(=O)CC[C@H](N)C(=O)O,0.986,1.04,0.992,1.04,1.01,1.06,19.6 ± 2,16.8 ± 2.1,14.1 ± 1.3,11 ± 1.6,10.7 ± 1,101 ± 5.1,99.5 ± 3.6,95 ± 4.3,101 ± 6.9,106 ± 4,3.99,4.5,4.98,4.52,4,4.46,,,,,,,,,,
O=C(O)CSc1cc(NS(=O)(=O)c2ccc(Br)cc2)c2ccccc2c1O,0.954,0.952,0.961,0.926,0.881,0.694,,,,,,,,,,,4.65,5.25,6.44,7.75,8.94,11.1,44,35.2,25.1,,,,,,,
CN(C)C/C=C/C(=O)Nc1cc2c(Nc3ccc(F)c(Cl)c3)ncnc2cc1O[C@H]1CCOC1,0.955,0.955,0.877,0.894,0.538,0.275,101 ± 4.4,110 ± 3.7,105 ± 2.6,,,63 ± 4,52.4 ± 3.5,47.2 ± 2.5,,,8.62,12.1,12.2,11.2,12.6,18.5,,,,,,,,,,
S=P(N1CC1)(N1CC1)N1CC1,1.06,0.967,0.939,0.904,0.942,0.856,,,,,,,,,,,3.3,3.39,3.97,4.44,5.38,7.45,39.2,31,32.9,,,,,,,
CC1=C2C(=CO[C@H](C)[C@H]2C)C(=O)C(C(=O)O)=C1O,0.985,0.942,0.951,0.893,0.935,0.793,,,,,,,,,,,4.49,5.94,4.77,8.7,6.33,10.3,48.9,45.6,42,,,,,,,
CC(C)[C@H]1OC(=O)[C@H](Cc2ccccc2)N(C)C(=O)[C@@H](C(C)C)OC(=O)[C@H](Cc2ccccc2)N(C)C(=O)[C@@H](C(C)C)OC(=O)[C@H](Cc2ccccc2)N(C)C1=O,0.976,0.957,0.981,0.73,0.439,0.0218,,,,,,,,,,,3.92,4.9,9.63,14.2,15.5,34.1,19.7,28.9,11.6,,,,,,,
C=C(C)[C@H]1Cc2c(ccc3c2O[C@@H]2COc4cc(OC)c(OC)cc4[C@@H]2C3=O)O1,0.719,0.643,0.485,0.349,0.311,0.332,,,,,,,,,,,10.4,11.4,15.6,15.6,15.4,15.4,15,17.9,21.1,,,,,,,
CN(C)/N=N/c1nc[nH]c1C(N)=O,1,0.996,0.98,0.966,1.02,1.02,,,,,,,,,,,4.78,4.12,4.94,4.77,3.79,4.2,43.6,42.3,45.2,,,,,,,
COc1cc([C@@H]2c3cc4c(cc3[C@@H](O[C@@H]3O[C@@H]5CO[C@@H](C)O[C@H]5[C@H](O)[C@H]3O)[C@H]3COC(=O)[C@H]23)OCO4)cc(OC)c1O,0.661,0.635,0.568,0.604,0.551,0.536,,,,,,,,,,,11.9,14,12.9,14.6,14.4,15.2,26.2,24.8,18.3,,,,,,,
Oc1cc(O)cc(/C=C/c2ccc(O)c(O)c2)c1,1.06,1.01,0.995,0.951,0.958,0.886,,,,,,,,,,,3.37,3.39,4.93,8.04,10.9,13.7,49.3,53.9,45.4,,,,,,,
CN(N=O)C(=O)N[C@@H]1[C@@H](O)[C@H](O)[C@@H](CO)O[C@@H]1O,1.04,0.929,0.893,0.893,0.88,0.851,,,,,,,,,,,12.4,14.8,14.4,13.9,10.4,10.8,48.1,46.7,48.1,,,,,,,
CC(=O)O[C@H]1C(=O)[C@@]2(C)[C@H]([C@H](OC(=O)c3ccccc3)[C@]3(O)C[C@H](OC(=O)[C@H](O)[C@@H](NC(=O)c4ccccc4)c4ccccc4)C(C)=C1C3(C)C)[C@]1(OC(C)=O)CO[C@@H]1C[C@@H]2O,,0.253 ± 0.051,,0.222 ± 0.03,,0.351 ± 0.024,,,,,,,,,,,,24.9 ± 1.2,,23.3 ± 0.75,,24.1 ± 0.87,17.4,,20,0.939 ± 0.12,0.744 ± 0.19,0.413 ± 0.16,17,16.9 ± 1.5,19 ± 0.57,22.1 ± 1.1
C#CC[C@H](c1nc2cc(Cl)ccc2c(=O)n1Nc1ccccc1)N(CCCN)C(=O)c1cccc(Cl)c1F,0.999,0.984,0.903,0.401,0.198,0.0211,,,,,,,,,,,4.72,4.61,4.15,10.3,12.9,26.1,26.8,13.2,10.4,,,,,,,
CC1(C)[C@@H](O[C@H]2O[C@H](C(=O)O)[C@@H](O)[C@H](O)[C@H]2O[C@@H]2O[C@H](C(=O)O)[C@@H](O)[C@H](O)[C@H]2O)CC[C@]2(C)[C@H]3C(=O)C=C4[C@@H]5C[C@@](C)(C(=O)O)CC[C@]5(C)CC[C@@]4(C)[C@]3(C)CC[C@@H]12.N,1,0.993,0.972,0.982,1,1.03,,,,,,,,,,,4.09,5.25,5.85,3.67,3.06,3.66,50.8,48.2,51,,,,,,,
C[C@H]1O[C@@H](O[C@H]2CC[C@@]3(C)[C@@H](CC[C@]4(C)[C@@H]3C=C[C@]35OC[C@@]6(CCC(C)(C)C[C@H]63)[C@@H](O)C[C@]54C)[C@]2(C)CO)[C@H](O)[C@@H](O[C@@H]2O[C@H](CO)[C@@H](O)[C@H](O)[C@H]2O)[C@H]1O,0.96,0.765,0.155,0.3,0.0734,0.0918,,,,,,,,,,,5.15,6.79,10.6,9.69,27.5,29.4,35.7,16.7,15.5,,,,,,,
C[C@@H]1C[C@@H]([C@H](O)CC2CC(=O)NC(=O)C2)C(=O)[C@@H](C)C1,0.783,0.651,0.576,0.534,0.475,0.479,,,,,,,,,,,9.38,9.5,11.4,11.5,12.8,14.2,21,19.4,20.1,,,,,,,
C[C@@H]1O[C@@H](O[C@H]2[C@H](OC(=O)[C@]34CCC(C)(C)C[C@H]3C3=CC[C@@H]5[C@@]6(C)C[C@H](O)[C@H](O[C@@H]7O[C@H](CO)[C@@H](O)[C@H](O)[C@H]7O)[C@@](C)(CO)[C@@H]6CC[C@@]5(C)[C@]3(C)CC4)O[C@H](CO)[C@@H](O)[C@@H]2O)[C@H](O)[C@H](O)[C@H]1O[C@@H]1OC[C@@H](O)[C@H](O)[C@H]1O,0.996,0.972,0.947,0.97,0.984,0.999,,,,,,,,,,,4.19,4.7,5.42,5.5,6.76,3.23,52.4,46.4,51,,,,,,,

# Source: the supplement of paper PMC10011410
